Laboratory results: ChEMBL document CHEMBL1201862, “PubChem BioAssay data set” (2004)
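In this assay, cells in 96-well plates receive the compound at five concentrations for 48 hours. Endpoints are linearly interpolated between the surrounding concentrations. The concentration for 50% growth inhibition is given as GI50.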 The source made the active and inactive calls. Cut-off read from the data, not from the text of the source: active = GI50 up to about 1.1 µM and inactive = higher.

Key:
Test in all cases: NCI tumour cell line growth inhibition, 48 h
[1] = tested on: NCI-H460
[2] = tested on: SNB-75
[3] = tested on: MCF7
[4] = tested on: OVCAR-8
[5] = tested on: SK-OV-3
[6] = tested on: HOP-92
[7] = tested on: MDA-MB-435
[8] = tested on: ACHN
[9] = tested on: UACC-257
[10] = tested on: A549
[11] = tested on: SK-MEL-28
[12] = tested on: HL-60
[13] = tested on: SF-268
[14] = tested on: EKVX
[15] = tested on: NCI-H23
[16] = tested on: COLO 205
[17] = tested on: MOLT-4
[18] = tested on: TK-10
[19] = tested on: HCT-15
[20] = tested on: MDA-MB-231
[21] = tested on: SF-295
[22] = tested on: UO-31
[23] = tested on: T47D
[24] = tested on: NCI/ADR-RES
[25] = tested on: SN12C
[26] = tested on: UACC-62
[27] = tested on: IGROV-1
[28] = tested on: Malme-3M
[29] = tested on: OVCAR-4
[30] = tested on: Hs-578T
[31] = tested on: SW-620
[32] = tested on: HOP-62
[33] = tested on: SK-MEL-5
[34] = tested on: 786-0
[35] = tested on: DU-145
[36] = tested on: OVCAR-5
[37] = tested on: RPMI-8226
[38] = tested on: SNB-19
[39] = tested on: NCI-H226
[40] = tested on: K562
[41] = tested on: HCT-116
[42] = tested on: OVCAR-3
[43] = tested on: KM12
[44] = tested on: PC-3
[45] = tested on: CAKI-1
[46] = tested on: NCI-H522
[47] = tested on: HT-29
[48] = tested on: LOX IMVI
[49] = tested on: U-251
[50] = tested on: RXF 393
[51] = tested on: SK-MEL-2
[52] = tested on: CCRF-CEM
[53] = tested on: M14
[54] = tested on: SF-539
[55] = tested on: SR
[56] = tested on: A498
[57] = tested on: HCC 2998
[58] = tested on: MDA-N

## COC(=O)C1=C(C)NC(=S)NC1c1ccc(N(CCCl)CCCl)cc1Cl (configuration not stated)
[1]
  GI50: 22 µM (inactive)
[2]
  GI50: > 54.6 µM (inactive)
[3]
  GI50: 16.7 µM (inactive)
[4]
  GI50: 31 µM (inactive)
[5]
  GI50: > 100 µM (inactive)
[6]
  GI50: 74.8 µM (inactive)
[7]
  GI50: 12.5 µM (inactive)
[8]
  GI50: 11 µM (inactive)
[9]
  GI50: 2.44 µM (inactive)
[10]
  GI50: 8.2 µM (inactive)
[11]
  GI50: 29 µM (inactive)
[12]
  GI50: 39.4 µM (inactive)
[13]
  GI50: 23.9 µM (inactive)
[14]
  GI50: 2.11 µM (inactive)
[15]
  GI50: 5.45 µM (inactive)
[16]
  GI50: 25.3 µM (inactive)
[17]
  GI50: 4.55 µM (inactive)
[18]
  GI50: 32.4 µM (inactive)
[19]
  GI50: 9.91 µM
[20]
  GI50: 21 µM (inactive)
[21]
  GI50: 19.4 µM (inactive)
[22]
  GI50: 35.8 µM (inactive)
[23]
  GI50: 6.71 µM (inactive)
[24]
  GI50: 37 µM (inactive)
[25]
  GI50: 34.2 µM (inactive)
[26]
  GI50: 3.05 µM (inactive)
[27]
  GI50: 29.4 µM (inactive)
[28]
  GI50: 3.04 µM (inactive)
[29]
  GI50: 16.3 µM (inactive)
[30]
  GI50: > 22 µM (inactive)
[31]
  GI50: 33 µM (inactive)
[32]
  GI50: 73.6 µM (inactive)
[33]
  GI50: 1.82 µM (inactive)
[34]
  GI50: 51.3 µM (inactive)
[35]
  GI50: 12.4 µM (inactive)
[36]
  GI50: 56.5 µM (inactive)
[37]
  GI50: 1.33 µM (inactive)
[38]
  GI50: 49 µM (inactive)
[39]
  GI50: 3.56 µM (inactive)
[40]
  GI50: 8.99 µM (inactive)
[41]
  GI50: 34 µM (inactive)
[42]
  GI50: 22.6 µM (inactive)
[43]
  GI50: 19.6 µM (inactive)
[44]
  GI50: 20.9 µM (inactive)
[45]
  GI50: 2 µM (inactive)
[46]
  GI50: 31.8 µM (inactive)
[47]
  GI50: 32.5 µM (inactive)
[48]
  GI50: 24.8 µM (inactive)
[49]
  GI50: 53.6 µM (inactive)
[50]
  GI50: > 34.9 µM (inactive)
[51]
  GI50: 24.2 µM (inactive)
[52]
  GI50: 0.824 µM (active)
[53]
  GI50: 32.5 µM (inactive)
[54]
  GI50: > 72.6 µM (inactive)

## O=c1[nH]c(=O)n(COCc2ccccc2)c2ccc([N+](=O)[O-])cc12
[2]
  GI50: > 100 µM (inactive)
[3]
  GI50: > 100 µM (inactive)
[4]
  GI50: 35.2 µM (inactive)
[5]
  GI50: > 100 µM (inactive)
[6]
  GI50: > 100 µM (inactive)
[7]
  GI50: > 100 µM (inactive)
[8]
  GI50: 25.6 µM (inactive)
[9]
  GI50: > 100 µM (inactive)
[10]
  GI50: > 100 µM (inactive)
[55]
  GI50: > 100 µM (inactive)
[11]
  GI50: > 100 µM (inactive)
[12]
  GI50: > 100 µM (inactive)
[14]
  GI50: > 100 µM (inactive)
[16]
  GI50: > 100 µM (inactive)
[17]
  GI50: > 100 µM (inactive)
[18]
  GI50: > 100 µM (inactive)
[19]
  GI50: > 100 µM
[20]
  GI50: > 100 µM (inactive)
[21]
  GI50: > 100 µM (inactive)
[22]
  GI50: > 100 µM (inactive)
[24]
  GI50: 4.85 µM (inactive)
[25]
  GI50: > 100 µM (inactive)
[26]
  GI50: > 100 µM (inactive)
[27]
  GI50: > 100 µM (inactive)
[56]
  GI50: > 100 µM (inactive)
[29]
  GI50: 56.5 µM (inactive)
[31]
  GI50: > 100 µM (inactive)
[57]
  GI50: > 100 µM (inactive)
[33]
  GI50: > 100 µM (inactive)
[34]
  GI50: 80 µM (inactive)
[35]
  GI50: > 100 µM (inactive)
[36]
  GI50: > 100 µM (inactive)
[39]
  GI50: > 100 µM (inactive)
[58]
  GI50: > 100 µM (inactive)
[40]
  GI50: > 100 µM (inactive)
[41]
  GI50: > 100 µM (inactive)
[42]
  GI50: > 100 µM (inactive)
[43]
  GI50: > 100 µM (inactive)
[44]
  GI50: > 100 µM (inactive)
[45]
  GI50: > 100 µM (inactive)
[47]
  GI50: > 100 µM (inactive)
[48]
  GI50: > 100 µM (inactive)
[49]
  GI50: > 100 µM (inactive)
[50]
  GI50: > 100 µM (inactive)
[51]
  GI50: > 100 µM (inactive)
[52]
  GI50: > 100 µM (inactive)
[53]
  GI50: > 100 µM (inactive)
[54]
  GI50: > 100 µM (inactive)

## COc1ccc2c3c([nH]c2c1)-c1nc2ccccc2c(=O)n1CC3
[2]
  GI50: 13.1 µM (inactive)
[3]
  GI50: > 25 µM (inactive)
[4]
  GI50: > 25 µM (inactive)
[5]
  GI50: > 25 µM (inactive)
[7]
  GI50: > 25 µM (inactive)
[8]
  GI50: > 25 µM (inactive)
[9]
  GI50: > 25 µM (inactive)
[55]
  GI50: > 25 µM (inactive)
[11]
  GI50: > 25 µM (inactive)
[12]
  GI50: > 25 µM (inactive)
[13]
  GI50: 21.5 µM (inactive)
[14]
  GI50: > 25 µM (inactive)
[16]
  GI50: > 25 µM (inactive)
[17]
  GI50: > 25 µM (inactive)
[18]
  GI50: > 25 µM (inactive)
[19]
  GI50: > 25 µM
[20]
  GI50: > 25 µM (inactive)
[21]
  GI50: > 25 µM (inactive)
[22]
  GI50: > 25 µM (inactive)
[23]
  GI50: > 25 µM (inactive)
[24]
  GI50: > 25 µM (inactive)
[25]
  GI50: > 25 µM (inactive)
[27]
  GI50: > 25 µM (inactive)
[31]
  GI50: > 25 µM (inactive)
[32]
  GI50: > 25 µM (inactive)
[57]
  GI50: > 25 µM (inactive)
[33]
  GI50: > 25 µM (inactive)
[34]
  GI50: 0.317 µM (active)
[36]
  GI50: > 25 µM (inactive)
[37]
  GI50: > 25 µM (inactive)
[38]
  GI50: > 25 µM (inactive)
[58]
  GI50: > 25 µM (inactive)
[40]
  GI50: > 25 µM (inactive)
[41]
  GI50: > 25 µM (inactive)
[43]
  GI50: > 25 µM (inactive)
[44]
  GI50: > 25 µM (inactive)
[46]
  GI50: > 25 µM (inactive)
[49]
  GI50: > 25 µM (inactive)
[53]
  GI50: > 25 µM (inactive)
[54]
  GI50: 14.9 µM (inactive)
